According to patent publication US12077503B2, “Substituted cyclic amides and their use as herbicides” (FMC CORPORATION, priority 2015, dated 2024):

What was measured:
Assay type in all cases: in vivo
Kochia (Kochia scoparia) [1] = assay: Test A preemergence; conditions: Bassia scoparia, pre-emergence, 240 h, 0 to 100 scale where 0 is no effect and 100 is complete control, read-out: Kochia plant response rating; for pest or weed control at 31 g/ha: 31 g ai/ha, Preemergence; for pest or weed control at 125 g/ha: 125 g ai/ha, preemergence, visual injury rating, approximately 10 d
Method in brief: (§1)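 Ratings of 0 (no effect) to 100 (complete control) come from visual comparison with untreated controls roughly 10 d after treatment. Test chemicals, formulated in a non-phytotoxic solvent mixture with surfactant, were applied either as a preemergence directed soil spray on seeded soil or postemergence to one- to two-leaf plants 2 to 10 cm tall.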

[2] = system: barnyardgrass (Echinochloa crus-galli); assay: Test A preemergence; conditions: Echinochloa crus-galli, pre-emergence, 240 h, 0 to 100 scale where 0 is no effect and 100 is complete control, read-out: Barnyardgrass plant response rating; for pest or weed control at 31 g/ha: 31 g ai/ha, Preemergence; for pest or weed control at 125 g/ha: 125 g ai/ha, preemergence, visual injury rating, approximately 10 d
Method in brief: as §1

[3] = system: giant foxtail (Setaria faberii); assay: Test A preemergence; conditions: Setaria faberi, pre-emergence, 240 h, 0 to 100 scale where 0 is no effect and 100 is complete control, read-out: Foxtail, Giant plant response rating; for pest or weed control at 31 g/ha: 31 g ai/ha, Preemergence; for pest or weed control at 125 g/ha: 125 g ai/ha, preemergence, visual injury rating, approximately 10 d
Method in brief: as §1

[4] = system: pigweed (Amaranthus retroflexus); assay: Test A preemergence; conditions: Amaranthus retroflexus, pre-emergence, 240 h, 0 to 100 scale where 0 is no effect and 100 is complete control, read-out: Pigweed plant response rating; for pest or weed control at 31 g/ha: 31 g ai/ha, Preemergence; for pest or weed control at 125 g/ha: 125 g ai/ha, preemergence, visual injury rating, approximately 10 d
[5] = system: ragweed (common ragweed, Ambrosia elatior); assay: Test A preemergence; conditions: Ambrosia artemisiifolia, pre-emergence, 240 h, 0 to 100 scale where 0 is no effect and 100 is complete control, read-out: Ragweed plant response rating; for pest or weed control at 31 g/ha: 31 g ai/ha, Preemergence; for pest or weed control at 125 g/ha: 125 g ai/ha, preemergence, visual injury rating, approximately 10 d
Method in brief: as §1

[6] = system: ryegrass, Italian (Italian ryegrass, Lolium multiflorum); assay: Test A preemergence; conditions: Lolium multiflorum, pre-emergence, 240 h, 0 to 100 scale where 0 is no effect and 100 is complete control, read-out: Ryegrass, Italian plant response rating; for pest or weed control at 31 g/ha: 31 g ai/ha, Preemergence; for pest or weed control at 125 g/ha: 125 g ai/ha, preemergence, visual injury rating, approximately 10 d
Method in brief: as §1

[7] = system: Galium (catchweed bedstraw, Galium aparine); assay: Test A postemergence; conditions: Galium, post-emergence, 240 h, Postemergence, read-out: Galium plant response rating (0 to 100 scale); for pest or weed control at 125 g/ha: 125 g ai/ha, visual rating about 10 d after treatment; for pest or weed control at 31 g/ha: 31 g ai/ha, 0 is no effect, 100 is complete control
Method in brief: as §1

Kochia (Kochia scoparia) [8] = assay: Test A postemergence; conditions: Bassia scoparia, post-emergence, 240 h, Postemergence, read-out: Kochia plant response rating (0 to 100 scale); for pest or weed control at 125 g/ha: 125 g ai/ha, visual rating about 10 d after treatment; for pest or weed control at 31 g/ha: 31 g ai/ha, 0 is no effect, 100 is complete control
Method in brief: as §1

[9] = system: barnyardgrass (Echinochloa crus-galli); assay: Test A postemergence; conditions: Echinochloa crus-galli, post-emergence, 240 h, Postemergence; for pest or weed control at 125 g/ha: 125 g ai/ha, visual rating about 10 d after treatment, read-out: Barnyardgrass plant response rating (0 to 100 scale, 0 no effect, 100 complete control); for pest or weed control at 31 g/ha: 31 g ai/ha, 0 is no effect, 100 is complete control, read-out: Barnyardgrass plant response rating (0 to 100 scale)
Method in brief: as §1

[10] = system: blackgrass (Alopecurus myosuroides); assay: Test A postemergence; conditions: Alopecurus myosuroides, post-emergence, 240 h, Postemergence, read-out: Blackgrass plant response rating (0 to 100 scale); for pest or weed control at 125 g/ha: 125 g ai/ha, visual rating about 10 d after treatment; for pest or weed control at 31 g/ha: 31 g ai/ha, 0 is no effect, 100 is complete control
Method in brief: as §1

corn (Zea mays) = assay: Test A postemergence; conditions: Zea mays, post-emergence, 240 h, Postemergence, read-out: Corn plant response rating (0 to 100 scale); for plant injury at 125 g/ha: 125 g ai/ha, visual rating about 10 d after treatment; for plant injury at 31 g/ha: 31 g ai/ha, 0 is no effect, 100 is complete control
Method in brief: as §1

[11] = system: giant foxtail (Setaria faberii); assay: Test A postemergence; conditions: Setaria faberi, post-emergence, 240 h, Postemergence, read-out: Foxtail, Giant plant response rating (0 to 100 scale); for pest or weed control at 125 g/ha: 125 g ai/ha, visual rating about 10 d after treatment; for pest or weed control at 31 g/ha: 31 g ai/ha, 0 is no effect, 100 is complete control
Method in brief: as §1

[12] = system: pigweed (Amaranthus retroflexus); assay: Test A postemergence; conditions: Amaranthus retroflexus, post-emergence, 240 h, Postemergence, read-out: Pigweed plant response rating (0 to 100 scale); for pest or weed control at 125 g/ha: 125 g ai/ha, visual rating about 10 d after treatment; for pest or weed control at 31 g/ha: 31 g ai/ha, 0 is no effect, 100 is complete control
Method in brief: as §1

[13] = system: ragweed (common ragweed, Ambrosia elatior); assay: Test A postemergence; conditions: Ambrosia artemisiifolia, post-emergence, 240 h, Postemergence, read-out: Ragweed plant response rating (0 to 100 scale); for pest or weed control at 125 g/ha: 125 g ai/ha, visual rating about 10 d after treatment; for pest or weed control at 31 g/ha: 31 g ai/ha, 0 is no effect, 100 is complete control
Method in brief: as §1

[14] = system: ryegrass, Italian (Italian ryegrass, Lolium multiflorum); assay: Test A postemergence; conditions: Lolium multiflorum, post-emergence, 240 h, Postemergence, read-out: Ryegrass, Italian plant response rating (0 to 100 scale); for pest or weed control at 125 g/ha: 125 g ai/ha, visual rating about 10 d after treatment; for pest or weed control at 31 g/ha: 31 g ai/ha, 0 is no effect, 100 is complete control
Method in brief: as §1

[15] = system: wheat (Triticum aestivum); assay: Test A postemergence; conditions: Triticum aestivum, post-emergence, 240 h, Postemergence, read-out: Wheat plant response rating (0 to 100 scale); for plant injury at 125 g/ha: 125 g ai/ha, visual rating about 10 d after treatment; for plant injury at 31 g/ha: 31 g ai/ha, 0 is no effect, 100 is complete control
Method in brief: as §1

[16] = system: barnyardgrass (Echinochloa crus-galli); assay: Test B flooded paddy test; conditions: Echinochloa crus-galli, 250 g ai/ha, Flood; 0 to 100 scale where 0 is no effect and 100 is complete control; read-out: Barnyardgrass plant response rating
Method in brief: (§2)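 Percent control, visually estimated after 13–15 d in the greenhouse on a 0–100 basis, compares treated pots with untreated ones; compound was put into paddy water 3 cm above the soil when plants had two leaves.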

[17] = system: ducksalad (Heteranthera limosa); assay: Test B flooded paddy test; conditions: Heteranthera limosa, 250 g ai/ha, Flood; 0 to 100 scale where 0 is no effect and 100 is complete control; read-out: Ducksalad plant response rating
Method in brief: as §2

rice (Oryra sativa) = assay: Test B flooded paddy test; conditions: Oryza sativa, 250 g ai/ha, Flood; 0 to 100 scale where 0 is no effect and 100 is complete control; read-out: Rice plant response rating
Method in brief: as §2

[18] = system: sedge, umbrella (small-flower umbrella sedge, Cyperus difformis); assay: Test B flooded paddy test; conditions: Cyperus difformis, 250 g ai/ha, Flood; 0 to 100 scale where 0 is no effect and 100 is complete control; read-out: Sedge, Umbrella plant response rating
Method in brief: as §2

| SMILES | pest or weed control at 31 g/ha (Kochia (Kochia scoparia) [1]) | pest or weed control at 125 g/ha (Kochia (Kochia scoparia) [1]) | pest or weed control at 31 g/ha [2] | pest or weed control at 125 g/ha [2] | pest or weed control at 31 g/ha [3] | pest or weed control at 125 g/ha [3] | pest or weed control at 31 g/ha [4] | pest or weed control at 125 g/ha [4] | pest or weed control at 31 g/ha [5] | pest or weed control at 125 g/ha [5] | pest or weed control at 31 g/ha [6] | pest or weed control at 125 g/ha [6] | pest or weed control at 125 g/ha [7] | pest or weed control at 31 g/ha [7] | pest or weed control at 125 g/ha (Kochia (Kochia scoparia) [8]) | pest or weed control at 31 g/ha (Kochia (Kochia scoparia) [8]) | pest or weed control at 125 g/ha [9] | pest or weed control at 31 g/ha [9] | pest or weed control at 125 g/ha [10] | pest or weed control at 31 g/ha [10] | other results |
| --- | --- | --- | --- | --- | --- | --- | --- | --- | --- | --- | --- | --- | --- | --- | --- | --- | --- | --- | --- | --- | --- |
| CN1C[C@H](c2cc(Cl)cc(Cl)c2)[C@@H](C(=O)Nc2ccccc2F)C1=O [Compound 1269] | 0% | 50% | 70% | 90% | 90% | 90% | 0% | 0% | 0% | 0% | 0% | 30% | 60% | 0% | 40% | 0% | 90% | 90% | 40% | 0% | plant injury at 125 g/ha (corn (Zea mays)): 80%; plant injury at 31 g/ha (corn (Zea mays)): 0%; pest or weed control at 125 g/ha [11]: 80%; pest or weed control at 31 g/ha [11]: 60%; pest or weed control at 125 g/ha [12]: 30%; pest or weed control at 31 g/ha [12]: 0%; pest or weed control at 125 g/ha [13]: 0%; pest or weed control at 31 g/ha [13]: 0%; pest or weed control at 125 g/ha [14]: 30%; pest or weed control at 31 g/ha [14]: 0%; plant injury at 125 g/ha [15]: 60%; plant injury at 31 g/ha [15]: 0%; pest or weed control at 250 g/ha [16]: 60%; pest or weed control at 250 g/ha [17]: 90%; pest or weed control at 250 g/ha (rice (Oryra sativa)): 0%; pest or weed control at 250 g/ha [18]: 0% |
| Cc1c(F)cccc1NC(=O)[C@H]1C(=O)N(C)C[C@@H]1c1ccc2c(c1)C(F)(F)C(F)(F)O2 [Compound 1272] | 0% | 20% | 90% | 90% | 90% | 90% | 0% | 0% | 0% | 0% | 20% | 60% | 60% | 50% | 20% | 0% | 70% | 40% | 40% | 20% | plant injury at 125 g/ha (corn (Zea mays)): 50%; plant injury at 31 g/ha (corn (Zea mays)): 0%; pest or weed control at 125 g/ha [11]: 80%; pest or weed control at 31 g/ha [11]: 50%; pest or weed control at 125 g/ha [12]: 0%; pest or weed control at 31 g/ha [12]: 0%; pest or weed control at 125 g/ha [13]: 0%; pest or weed control at 31 g/ha [13]: 0%; pest or weed control at 125 g/ha [14]: 30%; pest or weed control at 31 g/ha [14]: 20%; plant injury at 125 g/ha [15]: 50%; plant injury at 31 g/ha [15]: 20%; pest or weed control at 250 g/ha [16]: 50%; pest or weed control at 250 g/ha [17]: 80%; pest or weed control at 250 g/ha (rice (Oryra sativa)): 20%; pest or weed control at 250 g/ha [18]: 0% |
